In US11458123B2 (Arvinas, Inc., priority 2016, dated 2022):

Each compound was assayed on tau protein (assay: Tau protein in vitro degradation assay (Western blot, Tau-13 antibody)). Details: SK-N-SH cells; 72 hours of incubation; tested at 1000 nM, 300 nM and 100 nM.
Type: cell-based, human
Protocol: Tau Protein In Vitro Degradation Assay
To determine effect of PROTACs on tau protein degradation SK-N-SH cells were seeded in a 24-well tissue culture-treated plate for at least 18-hours prior to compound addition. Tau PROTACs were evaluated for tau degradation by lysing the cells in lysis buffer with protease inhibitors following a 72-hour incubation with tau PROTACs at 1000 nM, 300 nM and 100 nM for Table 1 and 300 nM, 100 nM, 33 nM and 11 nM for Table 2. Cell lysates were run on standard SDS-PAGE gels, and tau levels were detected by Western blotting using Tau-13 antibody from Abcam (Cambridge, UK) that binds to all forms of human tau.
With `Cc1ncsc1-c1ccc([C@H](C)NC(=O)[C@@H]2C[C@@H](O)CN2C(=O)[C@@H](NC(=O)COCCOCCOCC(=O)N2CCN(c3ccn4c(n3)nc3ccccc34)CC2)C(C)(C)C)cc1` [Compound 17, (2S,4R)-1-((S)-14-(4-(benzo[4,5]imidazo[1,2-a]pyrimidin-2-yl)piperazin-1-yl)-2-(tert-butyl)-4,14-dioxo-6,9,12-trioxa-3-azatetradecanoyl)-4-hydroxy-N—((S)-1-(4-(4-methylthiazol-5-yl)phenyl)ethyl)pyrrolidine-2-carboxamide] the “Activity* (highest amount of degradation observed at any dosage, as tau protein remaining)” value was “C (>80% tau protein remaining after 72 hours of incubation with the test compound)”.
With `Cc1ncsc1-c1ccc([C@H](C)NC(=O)[C@@H]2C[C@@H](O)CN2C(=O)[C@@H](NC(=O)COCCOCCOCCOCC(=O)N2CCN(c3ccn4c(n3)nc3ccccc34)CC2)C(C)(C)C)cc1` [Compound 18, (2S,4R)-1-((S)-17-(4-(benzo[4,5]imidazo[1,2-a]pyrimidin-2-yl)piperazin-1-yl)-2-(tert-butyl)-4,17-dioxo-6,9,12,15-tetraoxa-3-azaheptadecanoyl)-4-hydroxy-N—((S)-1-(4-(4-methylthiazol-5-yl)phenyl)ethyl)pyrrolidine-2-carboxamide] the “Activity* (highest amount of degradation observed at any dosage, as tau protein remaining)” value was “C (>80% tau protein remaining after 72 hours of incubation with the test compound)”.
With `Cc1ncoc1-c1ccc([C@H](C)NC(=O)[C@@H]2C[C@@H](O)CN2C(=O)[C@@H](NC(=O)COCCOCCOCCN2CCN(c3ccn4c(n3)nc3ccccc34)CC2)C(C)(C)C)cc1` [Compound 19, (2S,4R)-1-((S)-14-(4-(benzo[4,5]imidazo[1,2-a]pyrimidin-2-yl)piperazin-1-yl)-2-(tert-butyl)-4-oxo-6,9,12-trioxa-3-azatetradecanoyl)-4-hydroxy-N—((S)-1-(4-(4-methyloxazol-5-yl)phenyl)ethyl)pyrrolidine-2-carboxamide] the “Activity* (highest amount of degradation observed at any dosage, as tau protein remaining)” value was “C (>80% tau protein remaining after 72 hours of incubation with the test compound)”.
`Cc1ncoc1-c1ccc([C@H](C)NC(=O)[C@@H]2C[C@@H](O)CN2C(=O)[C@@H](NC(=O)COCCOCCOCCOCCN2CCN(c3ccn4c(n3)nc3ccccc34)CC2)C(C)(C)C)cc1` [Compound 20, (2S,4R)-1-((S)-17-(4-(benzo[4,5]imidazo[1,2-a]pyrimidin-2-yl)piperazin-1-yl)-2-(tert-butyl)-4-oxo-6,9,12,15-tetraoxa-3-azaheptadecanoyl)-4-hydroxy-N—((S)-1-(4-(4-methyloxazol-5-yl)phenyl)ethyl)pyrrolidine-2-carboxamide] was tested, and the “Activity* (highest amount of degradation observed at any dosage, as tau protein remaining)” value was “C (>80% tau protein remaining after 72 hours of incubation with the test compound)”.
With `Cc1ncoc1-c1ccc([C@H](C)NC(=O)[C@@H]2C[C@@H](O)CN2C(=O)[C@@H](NC(=O)COCCOCCOCC(=O)N2CCN(c3ccn4c(n3)nc3ccccc34)CC2)C(C)(C)C)cc1` [Compound 21, (2S,4R)-1-((S)-14-(4-(benzo[4,5]imidazo[1,2-a]pyrimidin-2-yl)piperazin-1-yl)-2-(tert-butyl)-4,14-dioxo-6,9,12-trioxa-3-azatetadecanoyl)-4-hydroxy-N—((S)-1-(4-(4-methyloxazol-5-yl)phenyl)ethyl)pyrrolidine-2-carboxamide] the “Activity* (highest amount of degradation observed at any dosage, as tau protein remaining)” value was “C (>80% tau protein remaining after 72 hours of incubation with the test compound)”.
With `Cc1ncoc1-c1ccc([C@H](C)NC(=O)[C@@H]2C[C@@H](O)CN2C(=O)[C@@H](NC(=O)COCCOCCOCCOCC(=O)N2CCN(c3ccn4c(n3)nc3ccccc34)CC2)C(C)(C)C)cc1` [Compound 22, (2S,4R)-1-((S)-17-(4-(benzo[4,5]imidazo[1,2-a]pyrimidin-2-yl)piperazin-1-yl)-2-(tert-butyl)-4,17-dioxo-6,9,12,15-tetraoxa-3-azaheptadecanoyl)-4-hydroxy-N—((S)-1-(4-(4-methyloxazol-5-yl)phenyl)ethyl)pyrrolidine-2-carboxamide] the “Activity* (highest amount of degradation observed at any dosage, as tau protein remaining)” value was “C (>80% tau protein remaining after 72 hours of incubation with the test compound)”.
With `Cc1ncsc1-c1ccc(CNC(=O)[C@@H]2C[C@@H](O)CN2C(=O)[C@@H](NC(=O)COCCOCCOCCOCCN2CCN(c3ccn4c(n3)nc3ccccc34)CC2)C(C)(C)C)cc1` [Compound 23, (2S,4R)-1-((5)-17-(4-(benzo[4,5]imidazo[1,2-a]pyrimidin-2-yl)piperazin-1-yl)-2-(tert-butyl)-4-oxo-6,9,12,15-tetraoxa-3-azaheptadecanoyl)-4-hydroxy-N-(4-(4-methylthiazol-5-yl)benzyl)pyrrolidine-2-carboxamide] the “Activity* (highest amount of degradation observed at any dosage, as tau protein remaining)” value was “C (>80% tau protein remaining after 72 hours of incubation with the test compound)”.
With `Cc1ncsc1-c1ccc(CNC(=O)[C@@H]2C[C@@H](O)CN2C(=O)[C@@H](NC(=O)COCCOCCOCCOCC(=O)N2CCN(c3ccn4c(n3)nc3ccccc34)CC2)C(C)(C)C)cc1` [Compound 24, (2S,4R)-1-((5)-17-(4-(benzo[4,5]imidazo[1,2-a]pyrimidin-2-yl)piperazin-1-yl)-2-(tert-butyl)-4,17-dioxo-6,9,12,15-tetraoxa-3-azaheptadecanoyl)-4-hydroxy-N-(4-(4-methylthiazol-5-yl)benzyl)pyrrolidine-2-carboxamide] the “Activity* (highest amount of degradation observed at any dosage, as tau protein remaining)” value was “C (>80% tau protein remaining after 72 hours of incubation with the test compound)”.
In the case of `O=C1CCC(N2C(=O)c3cccc(NCCOCCOCCOCCN4CCN(c5ccn6c(n5)nc5ccccc56)CC4)c3C2=O)C(=O)N1` (stereo not shown) [Compound 25, 4-((2-(2-(2-(2-(4-(benzo[4,5]imidazo[1,2-a]pyrimidin-2-yl)piperazin-1-yl)ethoxy)ethoxy)ethoxy)ethyl)amino)-2-(2,6-dioxopiperidin-3-yl)isoindoline-1,3-dione], the “Activity* (highest amount of degradation observed at any dosage, as tau protein remaining)” value is reported as “C (>80% tau protein remaining after 72 hours of incubation with the test compound)”.
For `O=C1CCC(N2C(=O)c3cccc(NCCOCCOCCOCCOCCN4CCN(c5ccn6c(n5)nc5ccccc56)CC4)c3C2=O)C(=O)N1` (stereo not shown) [Compound 26, 4-((14-(4-(benzo[4,5]imidazo[1,2-a]pyrimidin-2-yl)piperazin-1-yl)-3,6,9,12-tetraoxatetradecyl)amino)-2-(2,6-dioxopiperidin-3-yl)isoindoline-1,3-dione], the “Activity* (highest amount of degradation observed at any dosage, as tau protein remaining)” value was “C (>80% tau protein remaining after 72 hours of incubation with the test compound)”.
In the case of `Cc1ncsc1-c1ccc(CNC(=O)[C@@H]2C[C@@H](O)CN2C(=O)[C@@H](NC(=O)COCCOCCOc2ccc3nc(-c4ccc(N(C)C)cc4)ccc3c2)C(C)(C)C)cc1` [Compound 27, (2S,4R)-1-((S)-2-(2-(2-(2-(2-(4-(dimethylamino)phenyl)quinolin-6-yloxy)ethoxy)ethoxy)acetamido)-3,3-dimethylbutanoyl)-4-hydroxy-N-(4-(4-methylthiazol-5-yl)benzyl)pyrrolidine-2-carboxamide], the “Activity* (highest amount of degradation observed at any dosage, as tau protein remaining)” value is reported as “C (>80% tau protein remaining after 72 hours of incubation with the test compound)”.
For `Cc1ncsc1-c1ccc([C@H](C)NC(=O)[C@@H]2C[C@@H](O)CN2C(=O)[C@@H](NC(=O)COCCOCCOc2ccc3nc(-c4ccc(N(C)C)cc4)ccc3c2)C(C)(C)C)cc1` [Compound 28, (2S,4R)-1-((S)-2-(2-(2-(2-(2-(4-(dimethylamino)phenyl)quinolin-6-yloxy)ethoxy)ethoxy)acetamido)-3,3-dimethylbutanoyl)-4-hydroxy-N—((S)-1-(4-(4-methylthiazol-5-yl)phenyl)ethyl)pyrrolidine-2-carboxamide], the “Activity* (highest amount of degradation observed at any dosage, as tau protein remaining)” value was “C (>80% tau protein remaining after 72 hours of incubation with the test compound)”.
`Cc1ncsc1-c1ccc(CNC(=O)[C@@H]2C[C@@H](O)CN2C(=O)[C@@H](NC(=O)COCCOCCOCCOc2ccc3nc(-c4ccc(N(C)C)cc4)ccc3c2)C(C)(C)C)cc1` [Compound 29, (2S,4R)-1-((S)-2-tert-butyl-14-(2-(4-(dimethylamino)phenyl)quinolin-6-yloxy)-4-oxo-6,9,12-trioxa-3-azatetradecane)-4-hydroxy-N-(4-(4-methylthiazol-5-yl)benzyl)pyrrolidine-2-carboxamide] was tested, and the “Activity* (highest amount of degradation observed at any dosage, as tau protein remaining)” value was “C (>80% tau protein remaining after 72 hours of incubation with the test compound)”.
`Cc1ncsc1-c1ccc([C@H](C)NC(=O)[C@@H]2C[C@@H](O)CN2C(=O)[C@@H](NC(=O)COCCOCCOCCOc2ccc3nc(-c4ccc(N(C)C)cc4)ccc3c2)C(C)(C)C)cc1` [Compound 30, (2S,4R)-1-((S)-2-tert-butyl-14-(2-(4-(dimethylamino)phenyl)quinolin-6-yloxy)-4-oxo-6,9,12-trioxa-3-azatetradecane)-4-hydroxy-N—((S)-1-(4-(4-methylthiazol-5-yl)phenyl)ethyl)pyrrolidine-2-carboxamide] was tested, and the “Activity* (highest amount of degradation observed at any dosage, as tau protein remaining)” value was “C (>80% tau protein remaining after 72 hours of incubation with the test compound)”.
For `Cc1ncsc1-c1ccc(CNC(=O)[C@@H]2C[C@@H](O)CN2C(=O)[C@@H](NC(=O)COCCOCCOCCOCCOc2ccc3nc(-c4ccc(N(C)C)cc4)ccc3c2)C(C)(C)C)cc1` [Compound 31], the “Activity* (highest amount of degradation observed at any dosage, as tau protein remaining)” value was “C (>80% tau protein remaining after 72 hours of incubation with the test compound)”.
In the case of `Cc1ncsc1-c1ccc([C@H](C)NC(=O)[C@@H]2C[C@@H](O)CN2C(=O)[C@@H](NC(=O)COCCOCCOCCOCCOc2ccc3nc(-c4ccc(N(C)C)cc4)ccc3c2)C(C)(C)C)cc1` [Compound 32, (2S,4R)-1-((S)-2-tert-butyl-17-(2-(4-(dimethylamino)phenyl)quinolin-6-yloxy)-4-oxo-6,9,12,15-tetraoxa-3-azaheptadecane)-4-hydroxy-N—((S)-1-(4-(4-methylthiazol-5-yl)phenyl)ethyl)pyrrolidine-2-carboxamide], the “Activity* (highest amount of degradation observed at any dosage, as tau protein remaining)” value is reported as “C (>80% tau protein remaining after 72 hours of incubation with the test compound)”.
